# Results as given in PMC4604475 (Scientific Reports, 2015).
# Columns and labels:
# [1] = Hydrolysis kinetics in aqueous PBS 0.1 M, pH 6.8, 37 °C (intestinal conditions); format: physicochemical; details: for half-life at 5 μM: 0.1 M PBS buffer, 5 μM compound; for 10^2 * kII, pseudo first-order rate constant, disubstituted to monosubstituted / 10^2 * kIII, pseudo first-order rate constant, trisubstituted to disubstituted: value ± standard error of fit
# Description: (§1) There are two possible isomeric disubstituted intermediates and, likewise, two monosubstituted intermediates. By HPLC-UV and HPLC-MS analyses in most cases we were able to detect and separate all of them. However, to simplify the kinetic analysis of the data we considered each pair of isomeric intermediates, resulting from the first and second hydrolysis steps, as a single species, i.e. the two disubstituted and the two monosubstituted intermediates were handled as species II and I, respectively (Fig. 3). Fitting of the experimental data was then performed considering consecutive pseudo first order reactions and using a set of equations analogous to those described by Kozerski et al.[55]
# The stability of all new compounds was tested in aqueous media imitating gastric (0.1 N HCl, NormaFix) and intestinal (0.1 M PBS buffer, pH 6.8) conditions. A 5 μM solution of the compound was prepared from a 5 mM stock solution in DMSO, and incubated at 37 °C for 24 hours; samples withdrawn at different times were analysed by HPLC-UV. Hydrolysis products were identified by HPLC/ESI-MS analysis of selected samples. Non-linear curve fitting was performed using Origin 8.0 data analysis software, using the equations described in[55][61].
# [2] = Stability (hydrolysis kinetics) in rat whole blood; format: in vitro ADME; details: 37 °C; for kIII, pseudo first-order rate constant, trisubstituted to disubstituted: value ± standard error of fit; for half-life at 5 μM: whole blood (heparinised), 5 μM compound
# Description: as §1
# Rats were anesthetised and blood was withdrawn from the jugular vein, and transferred into tubes containing heparin. Blood samples (1 mL) were spiked with 5 μM compound (dilution from a 5 mM stock solution in DMSO), and incubated at 37 °C for 4 hours (the maximum period allowed by blood stability). Aliquots were taken after 10 min, 30 min, 1 h, 2 h and 4 h and treated as described below (blood sample treatment and analysis). Cleared blood samples were finally subjected to HPLC-UV analysis.
# (§2) Before starting the treatment, 4,4′-dihydroxybiphenyl was added as internal standard to a carefully measured blood volume (25 μM final concentration). 0.1 vol of 0.6 M TEA (pH 8.0) and 4 vol of MeOH were then added to the blood samples, which were then sonicated (2 min) and centrifuged (12,000 g, 7 min, 4 °C). The supernatant was finally collected and stored at −20 °C. Before analysis, MeOH was evaporated off at room temperature using a Univapo 150H (UniEquip) vacuum concentrator centrifuge, and up to 40 μL of ACN were added to precipitate residual proteins. After centrifugation (12,000 g, 5 min, 4 °C), cleared samples were directly subjected to HPLC-UV analysis. Metabolites and hydrolysis products were identified by comparison of chromatographic retention time with true samples or by HPLC/ESI-MS analysis.
# [3] = Blood pharmacokinetics after oral (intragastric) administration to rats; format: in vivo; details: rat, oral 88 μmol/kg
# Protocol: Derivatives 2–5 were then tested for their in vivo absorption and metabolism by performing pharmacokinetic studies after oral administration to rats. Each compound was administered as a single intragastric bolus, in an equimolar dose/kg body weight (88 μmol/kg). Blood samples were taken at different time points over a 24 h period, treated and analyzed as described in the Materials and Methods section. Each experiment was replicated at least 3 times.
# as §2
# Internal standard recovery from the treatment used to extract resveratrol-AA derivatives was 91.8 ± 10.7%. The recovery of 3, expressed as ratio to the recovery of internal standard, was 0.633 ± 0.088. […] Knowledge/assumption of these ratios allowed us to determine the unknown amount of analyte in a blood sample by measuring the recovery of internal standard.
# Since sample treatment includes an evaporation/concentration step, LOD and LOQ were determined relatively to the analytical part of the method (HPLC/UV analysis).
# Derivatives 2–5 were administered to overnight-fasted male Wistar rats from the facility of the Department of Biomedical Sciences, University of Padova, as a single intragastric dose (88 μmol/Kg, dissolved in 250 μl DMSO). Blood samples were obtained by the tail bleeding technique: before drug administration, rats were anesthetised with isoflurane and the tip of the tail was cut off; blood samples (80–100 μL each) were then taken from the tail tip at different time points after drug administration. Blood was collected in heparinised tubes, kept in ice and treated as described above within 10 min.
# [4] = oral administration of an equimolar amount of resveratrol itself; cited from earlier work
SMILES,half-life at 5 μM [1] [min],"10^2 * kII, pseudo first-order rate constant, disubstituted to monosubstituted [1] [h^−1]","10^2 * kIII, pseudo first-order rate constant, trisubstituted to disubstituted [1] [h^−1]","kIII, pseudo first-order rate constant, trisubstituted to disubstituted [2] [h⁻¹]",half-life at 5 μM [2] [min],level of disubstituted hydrolysis products (II) in blood [3],sulfated or glucuronidated species in the bloodstream [3],"concentration of prodrug in blood ([3]; about one hour after administration, remained around this level for several hours)","appearance in blood of resveratrol, products of partial hydrolysis (II and I) or any metabolites [3]",time of peak blood concentration of resveratrol [4]
"CC(C)CC(NC(=O)Oc1ccc(/C=C/c2cc(OC(=O)NC(CC(C)C)C(=O)O)cc(OC(=O)NC(CC(C)C)C(=O)O)c2)cc1)C(=O)O (centres unmarked) [Derivative 2, (E)-2,2′-((((5-(4-(((1-carboxy-3-methylbutyl)carbamoyl)oxy)styryl)-1,3-phenylene)bis(oxy))bis(carbonyl))bis(azanediyl))bis(4-methylpentanoic acid)]",> 1440,0.9 ± 0.2,1.98 ± 0.03,0.57 ± 0.06,60,,,,,
"CCC(C)C(NC(=O)Oc1ccc(/C=C/c2cc(OC(=O)NC(C(=O)O)C(C)CC)cc(OC(=O)NC(C(=O)O)C(C)CC)c2)cc1)C(=O)O (centres unmarked) [Derivative 3, (E)-2,2′-((((5-(4-(((1-carboxy-2-methylbutyl)carbamoyl)oxy)styryl)-1,3-phenylene)bis(oxy))bis(carbonyl))bis(azanediyl))bis(3-methylpentanoic acid)]",> 1440,0.4 ± 0.4,2.21 ± 0.02,0.63 ± 0.04,60,about as high as that of their precursor,neither sulfated nor glucuronidated species appeared in the bloodstream,higher than 0.5 μM,,
"CC(O)C(NC(=O)Oc1ccc(/C=C/c2cc(OC(=O)NC(C(=O)O)C(C)O)cc(OC(=O)NC(C(=O)O)C(C)O)c2)cc1)C(=O)O (centres unmarked) [Derivative 4, (E)-2,2′-((((5-(4-(((1-carboxy-2-hydroxypropyl)carbamoyl)oxy)styryl)-1,3-phenylene)bis(oxy))bis(carbonyl))bis(azanediyl))bis(3-hydroxybutanoic acid)]",900,1.4 ± 0.1,5.30 ± 0.08,3.9 ± 0.2,10.2,,,,did not result in the appearance in blood samples of detectable amounts,
"O=C(NC(Cc1ccccc1)C(=O)O)Oc1ccc(/C=C/c2cc(OC(=O)NC(Cc3ccccc3)C(=O)O)cc(OC(=O)NC(Cc3ccccc3)C(=O)O)c2)cc1 (centres unmarked) [Derivative 5, (E)-2,2′-((((5-(4-(((1-carboxy-2-phenylethyl)carbamoyl)oxy)styryl)-1,3-phenylene)bis(oxy))bis(carbonyl))bis(azanediyl))bis(3-phenylpropanoic acid)]",1020,1.36 ± 0.04,4.25 ± 0.02,1.86 ± 0.06,18,,,,did not result in the appearance in blood samples of detectable amounts,
"Oc1ccc(/C=C/c2cc(O)cc(O)c2)cc1 [resveratrol, 3,5, 4′-trihydroxy-trans-stilbene]",,,,,,,,,,about 10 minutes
